Values after ≈ are worked out from the molar mass of the structure shown. Where two headings read alike, the source gives them in different places. Marks after values point to notes of the source that are not given here.
Legend:
[1] = tested on: E. coli; experiment: Phase IIa baseline uropathogen susceptibility testing (CLSI broth microdilution); type: cell-based, Escherichia coli; settings: baseline visit
Description: (§1) This phase IIa single center study evaluated the safety, tolerability, pharmacokinetics, and efficacy of oral gepotidacin 1500 mg BID for 5 days in female subjects with acute cystitis. Clean catch mid-stream urine specimens were obtained for quantitative culture by standard methods. Urine samples were taken from all participants pre-treatment (baseline) and at all post-baseline visits. All urine samples were sent to a central laboratory (PPD Global Clinical Laboratories, Highland Heights, Ky., USA) for Gram stain, quantitative culture, pathogen identification and susceptibility testing. See FIG. 1 for participant disposition and study outline.
(§2) Susceptibility testing by CLSI broth microdilution and gradient diffusion (fosfomycin only) was conducted (CLSI, 2015, Methods for dilution antimicrobial susceptibility tests for bacteria that grow aerobically; approved standard-tenth edition; and CLSI, 2018. Performance Standards for Antimicrobial Susceptibility Testing; Twenty-seventh Informational Supplement M100-S28). Inclusion in the microbiological intent-to-treat population (micro-ITT), required growth of a qualifying baseline uropathogen (≥10^5 CFU/mL). See FIG. 2 for the baseline algorithm.

[2] = tested on: C. koseri; experiment: as above; type: cell-based, Citrobacter koseri; settings: baseline isolate
Description: as §1, §2

[3] = tested on: K. pneumoniae; experiment: as above; type: cell-based, Klebsiella pneumoniae; settings: baseline isolate
Description: as §1, §2

[4] = tested on: Staphylococcus saprophyticus; experiment: MIC by CLSI broth microdilution in CAMHB and urine, Example 1 Method 3; type: cell-based; settings: for Mean MIC: n = 6
Description: Antimicrobial activity was determined by broth microdilution using the CLSI recommended procedure.
(§3) The compounds were tested in serial two-fold dilutions and the minimum inhibitory concentration (MIC) was determined as the lowest concentration of the compound that inhibited visible growth.
In particular, gepotidacin was tested against 6 strains of Staphylococcus saprophyticus from the collection of isolates at Laboratory Specialists, Inc., Westlake, Ohio.
Levofloxacin was included as the comparator in the study to determine the effect of urine on the in vitro activity of gepotidacin against Staphylococcus saprophyticus. MICs were determined by broth microdilution according CLSI methods.
The data shown in the table below are results from an in vitro study conducted with the same S. saprophyticus isolates described above, to determine the effect of urine on the in vitro activity of gepotidacin and levofloxacin against S. saprophyticus. Study strains were tested for MICs (minimum inhibitory concentrations) according to reference CLSI broth microdilution method using cation-adjusted Mueller Hinton Broth (CAMHB) and with the addition of 25%, 50% and 100% urine (not pH adjusted, pH 6.42) and 100% urine (pH adjusted, 7.31 and 8.07).

[5] = tested on: Staphylococcus epidermidis; experiment: MIC by CLSI broth microdilution in CAMHB and urine, Example 5 Method 2; type: cell-based; settings: for Mean MIC: n = 4
Description: as §3
In particular, gepotidacin was tested against 4 strains of Staphylococcus epidermidis from the collection of isolates at Laboratory Specialists, Inc., Westlake, Ohio.
Levofloxacin was included as the comparator in the study to determine the effect of urine on the in vitro activity of gepotidacin against Staphylococcus epidermidis. MICs were determined by broth microdilution according CLSI methods.
The data shown in the table below are results from an in vitro study conducted with the same S. epidermidis isolates described above, to determine the effect of urine on the in vitro activity of gepotidacin and levofloxacin against S. epidermidis. Study strains were tested for MICs according to reference CLSI broth microdilution method using cation-adjusted Mueller Hinton Broth (CAMHB) and with the addition of 25%, 50% and 100% urine (not pH adjusted, pH 6.42) and 100% urine (pH adjusted, 7.31 and 8.07).

[6] = tested on: all the gram-negative anaerobe organisms combined; experiment: MIC by CLSI agar dilution, Example 6 Method 1; type: cell-based; settings: all gram-negative anaerobes combined; for MIC90: read-out: overall MIC90
Description: (§4) Antimicrobial activity was determined by agar dilution using the Clinical and Laboratory Standards Institute (CLSI) recommended procedure.
(§5) The compounds were tested in serial two-fold dilutions and the minimum inhibitory concentration (MIC) was determined as the lowest concentration of the compound that inhibited visible growth. Gepotidacin was tested against 333 gram-negative anaerobic and 203 gram-positive anaerobic isolates collected from clinical samples in North America and Europe from 2000 to 2017; the majority collected from 2013 to 2016.
(§6) Ceftriaxone, clindamycin, imipenem, metronidazole, moxifloxacin and piperacillin/tazobactam were included as comparators.

[7] = tested on: gram-positive anaerobe organisms combined; experiment: MIC by CLSI agar dilution, Example 6 Method 1; type: cell-based; settings: gram-positive anaerobes combined; for MIC90: read-out: overall MIC90
Description: as §4, §5, §6

[8] = tested on: qualifying uropathogens; experiment: Phase IIa baseline uropathogen susceptibility testing (CLSI broth microdilution); type: cell-based
Description: as §1, §2

[9] = tested on: viridans streptococci; experiment: MIC by CLSI broth microdilution, Example 5 Method 1; type: cell-based; settings: 105 isolates
Description: Gepotidacin was tested against 101 coagulase-negative staphylococci and 105 viridans streptococci in serial two-fold dilutions and the minimum inhibitory concentration (MIC) was determined as the lowest concentration of the compound that inhibited visible growth. All of the clinical isolates were collected in 2009-2012 from patient infections from North America, Europe, Latin America and Asia-Pacific medical centers and were mainly obtained from patients with documented nosocomial and community-acquired respiratory tract infections, bloodstream infections and skin and skin structure infections. Ceftriaxone, meropenem, penicillin, levofloxacin, moxifloxacin and linezolid were included as comparators when testing the viridans streptococci isolates. Oxacillin, levofloxacin, moxifloxacin and linezolid, were included as comparators when testing the coagulase-negative staphylococci isolates. MICs were determined by broth microdilution according to CLSI methods.

[10] = Escherichia coli, Participant #2 (E. coli), read-out: MIC
[11] = Escherichia coli, Participant #3 (E. coli), read-out: MIC
[12] = Escherichia coli, Participant #4 (E. coli), read-out: MIC
[13] = Escherichia coli, Participant #5 (E. coli, MDR and fluoroquinolone-resistant), read-out: MIC
[14] = Escherichia coli, Participant #6 (E. coli, MDR), read-out: MIC

## CC1(C)S[C@@H]2[C@H](NC(=O)[C@H](N)c3ccccc3)C(=O)N2[C@H]1C(=O)O [Ampicillin]
[1]; [10]
  MIC: > 64 µg/mL
[1]; [11]
  MIC: 2 µg/mL (≈ 5.72 µM)
[1]; [12]
  MIC: 1 µg/mL (≈ 2.86 µM)
[1]; [13]
  MIC: > 64 µg/mL
[1]; [14]
  MIC: > 64 µg/mL
[2]
  Susceptibility of the qualifying uropathogen: resistant
[3]
  Susceptibility of the qualifying uropathogen: resistant

## Cc1nnc(SCC2=C(C(=O)O)N3C(=O)[C@@H](NC(=O)Cn4cnnn4)[C@H]3SC2)s1 [Cefazolin]
[1]; [10]
  MIC: 2 µg/mL (≈ 4.4 µM)
[1]; [11]
  MIC: 4 µg/mL (≈ 8.8 µM)
[1]; [12]
  MIC: 2 µg/mL (≈ 4.4 µM)
[1]; [13]
  MIC: 4 µg/mL (≈ 8.8 µM)
[1]; [14]
  MIC: 32 µg/mL (≈ 70.4 µM)

## C[C@H]1COc2c(N3CCN(C)CC3)c(F)cc3c(=O)c(C(=O)O)cn1c23 [Levofloxacin, reference compound]
[4]; 25% Urine (pH 7.09) vs CAMHB
  Mean Dilution Difference: 0.50
  Mean difference: 0.33
  N(%) ± 1 dilution: 6 (100%)
  N(%) ± 2 dilution: 6 (100%)
[4]; 25% Urine (pH 7.09)
  Mean MIC: 1.12 µg/mL
[4]; 50% Urine (6.99) vs CAMHB
  Mean Dilution Difference: 0.17
  Mean difference: 0.10
  N(%) ± 1 dilution: 6 (100%)
  N(%) ± 2 dilution: 6 (100%)
[4]; 50% Urine (6.99)
  Mean MIC: 0.89 µg/mL
[4]; 100% Urine (pH 6.42) vs CAMHB
  Mean Dilution Difference: 0.67
  Mean difference: 0.47
  N(%) ± 1 dilution: 6 (100%)
  N(%) ± 2 dilution: 6 (100%)
[4]; 100% Urine (pH 6.42)
  Mean MIC: 1.26 µg/mL
[4]; 100% Urine (pH 7.31) vs CAMHB
  Mean Dilution Difference: 1.50
  Mean difference: 1.45
  N(%) ± 1 dilution: 2 (33.3%)
  N(%) ± 2 dilution: 6 (100%)
[4]; 100% Urine (pH 7.31)
  Mean MIC: 2.24 µg/mL
[4]; 100% Urine (pH 8.07) vs CAMHB
  Mean Dilution Difference: 1.17
  Mean difference: 0.99
  N(%) ± 1 dilution: 5 (83.3%)
  N(%) ± 2 dilution: 6 (100%)
[4]; 100% Urine (pH 8.07)
  Mean MIC: 1.78 µg/mL
[4]; CAMHB (ref. method, pH 7.2)
  Mean MIC: 0.79 µg/mL
[5]; 25% Urine (pH 7.09) vs CAMHB
  Mean Dilution Difference: 0.25
  Mean difference: 0.03
  N(%) ± 1 dilution: 4 (100%)
  N(%) ± 2 dilution: 4 (100%)
[5]; 25% Urine (pH 7.09)
  Mean MIC: 0.17 µg/mL
[5]; 50% Urine (6.99) vs CAMHB
  Mean Dilution Difference: 0.25
  Mean difference: 0.03
  N(%) ± 1 dilution: 4 (100%)
  N(%) ± 2 dilution: 4 (100%)
[5]; 50% Urine (6.99)
  Mean MIC: 0.17 µg/mL
[5]; 100% Urine (pH 6.42) vs CAMHB
  Mean Dilution Difference: 0.51
  Mean difference: 0.06
  N(%) ± 1 dilution: 4 (100%)
  N(%) ± 2 dilution: 4 (100%)
[5]; 100% Urine (pH 6.42)
  Mean MIC: 0.21 µg/mL
[5]; 100% Urine (pH 7.31) vs CAMHB
  Mean Dilution Difference: 0.78
  Mean difference: 0.10
  N(%) ± 1 dilution: 3 (75%)
  N(%) ± 2 dilution: 4 (100%)
[5]; 100% Urine (pH 7.31)
  Mean MIC: 0.25 µg/mL
[5]; 100% Urine (pH 8.07) vs CAMHB
  Mean Dilution Difference: 1.78
  Mean difference: 0.35
  N(%) ± 1 dilution: 2 (50%)
  N(%) ± 2 dilution: 3 (75%)
[5]; 100% Urine (pH 8.07) vs CAMHB, listed as levofloxacin
  Mean Dilution Difference: approximately 1.8
[5]; 100% Urine (pH 8.07)
  Mean MIC: 0.5 µg/mL
[5]; CAMHB (ref. method, pH 7.2)
  Mean MIC: 0.15 µg/mL

## CO/N=C(\C(=O)N[C@@H]1C(=O)N2C(C(=O)O)=C(CSc3nc(=O)c(=O)[nH]n3C)CS[C@H]12)c1csc(N)n1 [ceftriaxone]
[6]
  MIC90: 512 µg/mL
[7]
  MIC90: 256 µg/mL

## CCC[C@@H]1C[C@@H](C(=O)N[C@@H]([C@H]2O[C@H](SC)[C@H](O)[C@@H](O)[C@H]2O)[C@H](C)Cl)N(C)C1 [clindamycin]
[6]
  MIC90: > 8 µg/mL
[7]
  MIC90: > 8 µg/mL

## C[C@@H]1O[C@@H]1P(=O)(O)O [fosfomycin]
[8]
  Resistance among the baseline uropathogens recovered: None of the baseline uropathogens recovered were resistant

## C[C@@H](O)[C@H]1C(=O)N2C(C(=O)O)=C(SCCN=CN)C[C@H]12 [imipenem]
[6]
  MIC90: 0.5 µg/mL
[7]
  MIC90: 8 µg/mL

## C[C@@H](O)[C@H]1C(=O)N2C(C(=O)O)=C(S[C@@H]3CN[C@H](C(=O)N(C)C)C3)[C@H](C)[C@H]12 [meropenem]
[8]
  Resistance among the baseline uropathogens recovered: None of the baseline uropathogens recovered were resistant
[9]
  MIC90: 0.25 µg/mL (≈ 0.652 µM)

## Cc1ncc([N+](=O)[O-])n1CCO [metronidazole]
[6]
  MIC90: 2 µg/mL
[7]
  MIC90: 0.5 µg/mL

## COc1c(N2C[C@@H]3CCCN[C@@H]3C2)c(F)cc2c(=O)c(C(=O)O)cn(C3CC3)c12 [moxifloxacin]
[9]
  MIC90: 0.25 µg/mL (≈ 0.623 µM)
[6]
  MIC90: 8 µg/mL
[7]
  MIC90: > 8 µg/mL

## Trimethoprim-sulfamethoxazole
[1]; Participant #2 (E. coli)
  MIC: 0.03 µg/mL
[1]; Participant #3 (E. coli)
  MIC: 0.03 µg/mL
[1]; Participant #4 (E. coli)
  MIC: 0.03 µg/mL
[1]; Participant #5 (E. coli, MDR and fluoroquinolone-resistant)
  MIC: >8^b μg/mL
[1]; Participant #6 (E. coli, MDR)
  MIC: >8^b μg/mL

## piperacillin/tazobactam
[8]
  Resistance among the baseline uropathogens recovered: None of the baseline uropathogens recovered were resistant
[6]
  overall MIC90: 16 µg/mL
[7]
  overall MIC90: 16 µg/mL
